# According to patent US20110245091A1, “REACTION PROGRESS ASSAY FOR SCREENING BIOLOGICAL ACTIVITY OF ENZYMES” (priority 2010, published 2011):
# Target: T1, HIV-I reverse transcriptase (Human immunodeficiency virus type 1 group M subtype B, UniProt P04585)
# T1 construct: HIV-I RNA-dependent DNA polymerase (reverse transcriptase); purchased Worthington LS05006
# Experiment: Reaction progress luminescence assay of cDNA synthesis by HIV-I reverse transcriptase (luciferase detection of dATP)
# Assay type: biochemical
# Method: The reaction was set by adding: 16 µL of RNAse-free water; 2 µL of 10× reaction buffer (400 mM Tris-HCl, 60 mM MgCl2, 100 mM Dithiothreitol, 20 mM spermidine, pH 7.9 @ 25° C.); 2 µL of template, polyuridylic acid at 1 µg/µL (Midland Certified Reagent Company, Cat. No. P-3004); 2 µL of primer poly(A)18 at 0.5 µg/µL (Polydeoxyadenylate, 18 base long purchased from Integrated DNA technologies); 20 µM of dATP; 3 U of HIV-I (Worthington, Cat. No. LS05006); 3 µL of ATP detection solution prepared by diluting luciferase (EC 1.13.12.7) at 3 µg/mL in 0.1M Tris-acetate pH 7.7, 2 mM EDTA, 10 mM magnesium acetate, 0.1% BSA, 1 mM dithiothreitol, 0.4 mg/mL PVP, and 0.4 mM D-luciferin. A 5 µL of reaction solution has been added to a well of 384-well plate and the luminescence intensity vs. time was recorded on Orion II microplate luminometer at 25° C. (Berthold detection Systems (Pforzheim, Germany)). A first derivative, ∂l(t)l∂t, for the luminescence intensity has been calculated. The derivative was calculated by selecting a group of three or more consecutive measurements of the luminescence intensity and calculating by a least square method the “instant” slope of the luminescent intensity which said slope represents the first derivative of the luminescence at the time when the respective measurements were made. […]
structure (smiles),measurement,setting,value
C[C@H](Cn1cnc2c(N)ncnc21)OCP(=O)(O)O [MT-4S],mechanism of inhibition (crossing of trend lines),MT-4S at 1.2 nM and 3.7 nM,non-competitive
same,Ki,"inhibitor at 0, 1.2 and 3.7 nM, 20 μM dATP, 25° C., read-out: inhibition constant Ki",0.9 ± 0.15 nM
